Where only a bound is given, the exact number is not on record here.

Data set [1] in a line: Water solubility (Table I). In kind it is physicochemical. The following applies: 25° C.
The test system of data set [2] is Mexican bean beetle (Epilachna varivestis, Muls.). Description: Mexican bean beetle leaf spray test. Also noted: key: A: Excellent control; B: Partial control; C: No control. The following applies: 500 ppm, three days. The class given is in vivo. Here is the method: (§1) Suspensions of the test compounds were prepared by dissolving one gram of compound in 50 milliliters of acetone in which had been dissolved 0.1 gram (10 percent of the weight of compound) of an alkylphenoxy polyethoxyethanol surfactant, as an emulsifying or dispersing agent. The resulting solution was mixed into 150 milliliters of water to give roughly 200 milliliters of a suspension containing the compound in finely divided form. The thus-prepared stock suspension contained 0.5 percent by weight of test compound. The test concentrations in parts per million by weight employed in the tests described hereinbelow were obtained by appropriate dilutions of the stock suspension with water. The test procedures were as follows:
Fourth instar larvae of the Mexican bean beetle (Epilachna varivestis, Muls.) reared on Tendergreen bean plants at a temperature of 80°±5° and 50±5 percent relative humidity, were the test insects.
The test compounds were formulated by diluting the stock suspension with water to give a suspension containing 500 parts of test compound per million parts of final formulation. Potted Tendergreen bean plants of standard height and age were placed on a revolving turntable and sprayed with 100-110 milliliters of test compound formulation by use of a DeVilbiss spray gun set at 10 psig air pressure. This application, which lasted 25 seconds was sufficient to wet plants to run-off. As a control, 100-110 milliliters of a water-acetone-emulsifier solution containing no test compound were also sprayed on infested plants. When dry, the paired leaves were separated and each was placed in a 9 centimeter Petri dish lined with moistened filter paper. Five randomly selected larvae were introduced into each dish, and the dishes were closed. The closed dishes were labeled and held at a temperature of 80°±5° F. for three days. Although the larvae could easily consume the leaf within 24 to 48 hours, no more food was added. Larvae which were unable to move the length of the body, even upon stimulation, were considered dead.
In these test the pesticidal activity of the compounds against aphid, mite, Southern Armyworm, Mexican Bean Beetle, and house fly was rated as follows: […]

For the next data set, the system named is Bean. Description: Phytotoxicity test, bean. The following applies: 2500 ppm spray, after ten days. On the set-up: key: 1: no perceptible injury; 2: intermediate degrees of injury based upon the number and extent to which leaves were injured; 3: intermediate degrees of injury based upon the number and extent to which leaves were injured; 4: intermediate degrees of injury based upon the number and extent to which leaves were injured; 5: the plant was dead. In kind it is in vivo. Here is the method: as §1
(§2) Experiments were also conducted to determine the phytotoxicity of representative compositions with respect to healthy fresh plants. Solutions of the compounds were prepared as described above to provide a concentration of 2500 parts per million of the test compound. The test plants were sprayed in accordance with the procedure described above for the Mite Foliage Spray Test so as to deliver approximately 100 milliliters of test solution to the leaves of each plant tested. The sprayed plants and controls were set aside for approximately one hour to allow the solutions to dry and were then placed in the greenhouse. After ten days the plants were visually inspected to determine the extent of foliage injury. A rating of 1 indicates no perceptible injury; 5 indicates the plant was dead and ratings of 2, 3 and 4 indicate intermediate degrees of injury based upon the number and extent to which leaves were injured.

A further data set deals with Corn. Description: Phytotoxicity test, corn. In kind it is in vivo. On the set-up: key: 1: no perceptible injury; 2: intermediate degrees of injury based upon the number and extent to which leaves were injured; 3: intermediate degrees of injury based upon the number and extent to which leaves were injured; 4: intermediate degrees of injury based upon the number and extent to which leaves were injured; 5: the plant was dead. Particulars: 2500 ppm spray, after ten days. Here is the method: as §1, §2

In a further data set the test system is Tomato. As to the kind of experiment: Phytotoxicity test, tomato. In kind it is in vivo. Also noted: key: 1: no perceptible injury; 2: intermediate degrees of injury based upon the number and extent to which leaves were injured; 3: intermediate degrees of injury based upon the number and extent to which leaves were injured; 4: intermediate degrees of injury based upon the number and extent to which leaves were injured; 5: the plant was dead. The following applies: 2500 ppm spray, after ten days. Here is the method:
as §1, §2

A further data set deals with Soybean. Description: Phytotoxicity test, soybean. The following applies: 2500 ppm spray, after ten days. On the set-up: key: 1: no perceptible injury; 2: intermediate degrees of injury based upon the number and extent to which leaves were injured; 3: intermediate degrees of injury based upon the number and extent to which leaves were injured; 4: intermediate degrees of injury based upon the number and extent to which leaves were injured; 5: the plant was dead. In kind it is in vivo. Here is the method:
as §1, §2

The compound `CN(C(=O)C[N+](C)(C)C)C(=O)Oc1cccc2c1OC(C)(C)C2` yielded a solubility in data set [1] of 570 mg/mL. In addition, the “Pesticidal activity, Mexican Bean Beetle” value in data set [2] is “A”. Moreover, the “POST-Emergent Herbicidal (phytotoxicity rating), Bean” value in the data set with Bean is given as 1. Also, the “POST-Emergent Herbicidal (phytotoxicity rating), Corn” value (“POST-Emergent Herbicidal … Corn” for short) in the data set on Corn is reported as 1. Also, in the data set on Tomato, the “POST-Emergent Herbicidal (phytotoxicity rating), Tomato” value (shortened to “POST-Emergent Herbicidal … Tomato”) is 2. For the same compound, the “POST-Emergent Herbicidal (phytotoxicity rating), Soybean” value (from here on “POST-Emergent Herbicidal … Soybean”) with Soybean worked out at 2.
As for `CN(C(=O)C[N+]1(C)CCCC1)C(=O)Oc1cccc2c1OC(C)(C)C2`, the concentration in solution in data set [1] (solubility) came to 490 mg/mL. For the same compound, the “Pesticidal activity, Mexican Bean Beetle” value in data set [2] is given as “A”. For the same compound, the “POST-Emergent Herbicidal (phytotoxicity rating), Bean” value with Bean was found to be 2. The “POST-Emergent Herbicidal … Corn” value in the data set with Corn stood at 1. The “POST-Emergent Herbicidal … Tomato” value in the data set on Tomato is recorded as 1. Also, the “POST-Emergent Herbicidal … Soybean” value in the data set on Soybean was 2.
For `CN(C(=O)C[n+]1ccn(C)c1)C(=O)Oc1cccc2c1OC(C)(C)C2`, the solubility in data set [1] amounted to 370 mg/mL. The “Pesticidal activity, Mexican Bean Beetle” value in data set [2] is recorded as “A”. Also, in the data set with Bean, the “POST-Emergent Herbicidal (phytotoxicity rating), Bean” value amounted to 2. For the same compound, the “POST-Emergent Herbicidal … Corn” value in the data set on Corn came out at 1. Also, the “POST-Emergent Herbicidal … Tomato” value in the data set on Tomato is 1. Moreover, in the data set on Soybean, the “POST-Emergent Herbicidal … Soybean” value came to 2.
Consider `CCCCCCCCCCCC[N+](C)(C)CC(=O)N(C)C(=O)Oc1cccc2c1OC(C)(C)C2`, for which the solubility in data set [1] was > 250 mg/mL. In data set [2], the “Pesticidal activity, Mexican Bean Beetle” value is reported as “A”. In addition, the “POST-Emergent Herbicidal (phytotoxicity rating), Bean” value in the data set with Bean was 2. Also, the “POST-Emergent Herbicidal … Corn” value with Corn turned out to be 2. Further, the “POST-Emergent Herbicidal … Tomato” value in the data set with Tomato turned out to be 2. In addition, in the data set on Soybean, the “POST-Emergent Herbicidal … Soybean” value is 2.
`CN(C(=O)C[n+]1ccc(N(C)C)cc1)C(=O)Oc1cccc2c1OC(C)(C)C2` registered a solubility in data set [1] of 160 mg/mL. Further, in data set [2], the “Pesticidal activity, Mexican Bean Beetle” value was “A”. The “POST-Emergent Herbicidal (phytotoxicity rating), Bean” value in the data set on Bean was 2. Moreover, in the data set with Corn, the “POST-Emergent Herbicidal … Corn” value was 1. In addition, the “POST-Emergent Herbicidal … Tomato” value in the data set with Tomato was found to be 1. The “POST-Emergent Herbicidal … Soybean” value in the data set on Soybean was 2.
`CCCCCCCCCCCCCCCCCC[N+](C)(C)CC(=O)N(C)C(=O)Oc1cccc2c1OC(C)(C)C2`: the solubility in data set [1] is > 250 mg/mL. For the same compound, in data set [2], the “Pesticidal activity, Mexican Bean Beetle” value is listed as “A”. Besides, the “POST-Emergent Herbicidal (phytotoxicity rating), Bean” value in the data set on Bean is 2. Also, the “POST-Emergent Herbicidal … Corn” value with Corn stood at 2. The “POST-Emergent Herbicidal … Tomato” value in the data set with Tomato is 1. The “POST-Emergent Herbicidal … Soybean” value in the data set with Soybean is listed as 2.
